Laboratory results: ChEMBL document CHEMBL1201862, “PubChem BioAssay data set” (2004)
Calls of active or inactive are those of the source.

What was measured:
Assay type in all cases: functional
[1] = Late-stage assay provider results from the probe development effort to identify agonists of the Sphingosine 1-Phosphate Receptor 3 (S1P3): luminescence-based cell-based dose response counterscreen assay to determine cytotoxicity of agonist compounds.
[2] = molecular target: Sphingosine 1-phosphate receptor 2 (Homo sapiens, UniProt O95136); test: Late-stage fluorescence-based dose-response cell-based counterscreen assay to identify agonists of the Sphingosine 1-Phosphate Receptor 3 (S1P3): Sphingosine 1-Phosphate Receptor 2 (S1P2) agonist assay.
[3] = molecular target: Sphingosine 1-phosphate receptor 5 (Homo sapiens, UniProt Q9H228); test: Late-stage fluorescence-based dose-response cell-based counterscreen assay to identify agonists of the Sphingosine 1-Phosphate Receptor 3 (S1P3): Sphingosine 1-Phosphate Receptor 5 (S1P5) agonist assay.
[4] = molecular target: Sphingosine 1-phosphate receptor 4 (Homo sapiens, UniProt O95977); test: Late-stage fluorescence-based dose-response cell-based counterscreen assay to identify agonists of the Sphingosine 1-Phosphate Receptor 3 (S1P3): Sphingosine 1-Phosphate Receptor 4 (S1P4) agonist assay.
[5] = molecular target: Dual specificity protein kinase CLK2 (Homo sapiens, UniProt P49760)
[6] = molecular target: ALK tyrosine kinase receptor (Homo sapiens, UniProt Q9UM73);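 also: ALK tested as one member of a kinase panel screen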
[7] = molecular target: Serine/threonine-protein kinase D3 (Homo sapiens, UniProt O94806);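 also: determined within a kinase panel screen, with PRKCN as the panel member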
[8] = molecular target: Tyrosine-protein kinase Lck (Homo sapiens, UniProt P06239);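 also: lck was assayed as one member of a kinase panel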
[9] = molecular target: Death-associated protein kinase 3 (Homo sapiens, UniProt O43293);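 also: measured as one member of a kinome-wide profiling panel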
Activin receptor type-1 = Activin receptor type-1 (Homo sapiens, UniProt Q04771); test: Navigating the Kinome. Panel member name: ACVR1
[10] = molecular target: Mitogen-activated protein kinase 8 (Homo sapiens, UniProt P45983);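 also: value comes from one member of a kinome-wide kinase profiling panel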
[11] = molecular target: Serine/threonine-protein kinase pim-1 (Homo sapiens, UniProt P11309)
[12] = molecular target: Tyrosine-protein kinase BTK (Homo sapiens, UniProt Q06187)
[13] = molecular target: Serine/threonine-protein kinase PAK 4 (Homo sapiens, UniProt O96013);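 also: value obtained within a kinome profiling panel in which PAK4 was one of the panel members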
[14] = molecular target: Fibroblast growth factor receptor 1 (Homo sapiens, UniProt P11362)
[15] = molecular target: Casein kinase I isoform alpha (Homo sapiens, UniProt P48729)
[16] = molecular target: T1, Tyrosine-protein kinase JAK3 (Homo sapiens, UniProt P52333)
T1 sequence (P52333 whole entry): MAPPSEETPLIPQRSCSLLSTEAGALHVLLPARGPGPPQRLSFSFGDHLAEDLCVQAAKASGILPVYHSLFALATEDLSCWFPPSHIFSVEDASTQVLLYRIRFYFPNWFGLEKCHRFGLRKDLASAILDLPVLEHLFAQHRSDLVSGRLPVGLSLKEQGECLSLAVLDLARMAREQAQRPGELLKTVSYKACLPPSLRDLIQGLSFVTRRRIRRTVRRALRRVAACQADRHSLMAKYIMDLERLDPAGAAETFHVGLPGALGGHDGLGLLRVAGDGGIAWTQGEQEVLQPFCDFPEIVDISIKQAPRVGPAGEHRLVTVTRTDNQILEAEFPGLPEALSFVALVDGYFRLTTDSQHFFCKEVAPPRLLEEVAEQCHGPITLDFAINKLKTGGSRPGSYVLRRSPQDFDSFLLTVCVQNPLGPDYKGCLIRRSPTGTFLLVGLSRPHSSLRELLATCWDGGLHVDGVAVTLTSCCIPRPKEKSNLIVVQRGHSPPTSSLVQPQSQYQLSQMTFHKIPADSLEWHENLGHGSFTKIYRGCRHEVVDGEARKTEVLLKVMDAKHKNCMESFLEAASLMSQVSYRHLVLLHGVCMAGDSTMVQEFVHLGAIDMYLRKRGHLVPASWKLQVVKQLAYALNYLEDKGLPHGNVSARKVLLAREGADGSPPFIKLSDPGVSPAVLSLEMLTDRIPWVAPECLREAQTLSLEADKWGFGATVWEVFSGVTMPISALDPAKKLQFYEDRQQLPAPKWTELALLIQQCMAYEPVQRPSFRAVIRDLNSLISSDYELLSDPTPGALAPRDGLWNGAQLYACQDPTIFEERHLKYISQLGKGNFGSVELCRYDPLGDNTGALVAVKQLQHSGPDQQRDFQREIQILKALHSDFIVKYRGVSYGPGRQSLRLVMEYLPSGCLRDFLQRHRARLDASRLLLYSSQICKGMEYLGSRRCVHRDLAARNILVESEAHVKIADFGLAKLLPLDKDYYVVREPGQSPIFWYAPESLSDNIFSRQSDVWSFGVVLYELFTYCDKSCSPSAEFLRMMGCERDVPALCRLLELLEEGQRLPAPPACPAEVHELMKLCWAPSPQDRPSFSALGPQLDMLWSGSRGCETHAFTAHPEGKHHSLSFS

[17] = molecular target: Serine/threonine-protein kinase TAO1 (Homo sapiens, UniProt Q7L7X3)
[18] = molecular target: Glycogen synthase kinase-3 alpha (Homo sapiens, UniProt P49840);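 also: GSK3A result taken from a broad kinome-wide kinase panel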
Activated CDC42 kinase 1 = Activated CDC42 kinase 1 (Homo sapiens, UniProt Q07912); test: Navigating the Kinome. Panel member name: ACK1
[19] = molecular target: T2, Serine/threonine-protein kinase Chk1 (Homo sapiens, UniProt O14757);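 also: measured as one member of a kinome-wide kinase profiling panel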
T2 sequence (O14757 whole entry): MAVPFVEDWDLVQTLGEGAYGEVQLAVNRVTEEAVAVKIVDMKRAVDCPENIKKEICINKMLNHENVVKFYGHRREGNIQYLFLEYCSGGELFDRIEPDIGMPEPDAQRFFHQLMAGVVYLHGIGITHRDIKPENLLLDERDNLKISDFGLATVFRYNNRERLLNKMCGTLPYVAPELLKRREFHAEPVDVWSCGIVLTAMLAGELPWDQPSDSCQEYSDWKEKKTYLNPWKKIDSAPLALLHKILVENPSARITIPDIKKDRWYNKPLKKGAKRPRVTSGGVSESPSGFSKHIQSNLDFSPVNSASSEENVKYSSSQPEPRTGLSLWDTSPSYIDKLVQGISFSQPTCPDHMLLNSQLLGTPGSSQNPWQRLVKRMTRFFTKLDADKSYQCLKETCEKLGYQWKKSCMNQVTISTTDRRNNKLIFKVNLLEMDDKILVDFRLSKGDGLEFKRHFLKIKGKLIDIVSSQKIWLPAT

[20] = molecular target: G protein-coupled receptor kinase 5 (Homo sapiens, UniProt P34947); test: Navigating the Kinome. Panel member name: GPRK5
Focal adhesion kinase 1 = Focal adhesion kinase 1 (Homo sapiens, UniProt Q05397);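 also: measured as one member of a kinome panel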
Aurora kinase B = Aurora kinase B (Homo sapiens, UniProt Q96GD4)
[21] = molecular target: Tyrosine-protein kinase Fyn (Homo sapiens, UniProt P06241)
[22] = molecular target: Cyclin-dependent kinase 8 (Homo sapiens, UniProt P49336); test: Navigating the Kinome. Panel member name: CDK8
[23] = molecular target: Cyclin-dependent kinase 7 (Homo sapiens, UniProt P50613);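 also: value comes from a kinome-wide kinase profiling panel in which CDK7 is one member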
[24] = molecular target: Mitogen-activated protein kinase kinase kinase kinase 4 (Homo sapiens, UniProt O95819)
[25] = molecular target: Calcium/calmodulin-dependent protein kinase type II subunit alpha (Homo sapiens, UniProt Q9UQM7); test: Navigating the Kinome. Panel member name: CAMK2A
[26] = molecular target: Mitogen-activated protein kinase 14 (Homo sapiens, UniProt Q16539);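 also: part of a kinome-wide panel, MAPK14 entry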
[27] = molecular target: Calcium/calmodulin-dependent protein kinase type II subunit gamma (Homo sapiens, UniProt Q13555)
[28] = molecular target: Calcium/calmodulin-dependent protein kinase type II subunit delta (Homo sapiens, UniProt Q13557)
[29] = molecular target: Serine/threonine-protein kinase pim-3 (Homo sapiens, UniProt Q86V86);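 also: value obtained as one member of a broad kinase panel profiling effort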
[30] = molecular target: Calcium/calmodulin-dependent protein kinase type II subunit beta (Homo sapiens, UniProt Q13554)
[31] = molecular target: Interleukin-1 receptor-associated kinase 1 (Homo sapiens, UniProt P51617);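 also: IRAK1 tested as one member of a kinome panel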
[32] = molecular target: DNA dC->dU-editing enzyme APOBEC-3A (Homo sapiens, UniProt P31941); test: SAR analysis of small molecule inhibitors of APOBEC3A DNA Deaminase via a fluorescence-based single-stranded DNA deaminase assay - Set 2.; settings: read-out: IC50_Mean
[33] = molecular target: DNA dC->dU-editing enzyme APOBEC-3G (Homo sapiens, UniProt Q9HC16); test: SAR analysis of small molecule inhibitors of APOBEC3G DNA Deaminase via a fluorescence-based single-stranded DNA deaminase assay - Set 2.; settings: read-out: IC50_Mean
[34] = molecular target: Neuropeptides B/W receptor type 1 (Homo sapiens, UniProt P48145); test: human NPBW1 receptor blockade, IC50 – cell-based, fluorescence, dose response, set 5, late-stage follow-up (AID 588566)
[35] = molecular target: Melanin-concentrating hormone receptor 1 (Homo sapiens, UniProt Q99705); test: Late-stage fluorescence-based counterscreen for antagonists of the G-protein coupled receptor 7 (GPR7): cell-based dose response assay to identify antagonists of the melanin-concentrating hormone receptor 1 (MCHR1) Set 5.
[36] = viability of uninfected HEp-2 cells – cell-based, HTS, cytotoxicity control for RSV inhibitor project, dose response (AID 2410); settings: human respiratory syncytial virus
[37] = molecular target: Tyrosine-protein kinase SYK (Homo sapiens, UniProt P43405)
[38] = molecular target: Testis-specific serine/threonine-protein kinase 2 (Homo sapiens, UniProt Q96PF2);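 also: part of the Navigating the Kinome panel, target entry STK22B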
Aurora kinase A = Aurora kinase A (Homo sapiens, UniProt O14965);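 also: value from the Navigating the Kinome kinase panel profiling, panel entry STK6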
[39] = molecular target: Tyrosine-protein kinase ITK/TSK (Homo sapiens, UniProt Q08881);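 also: affinity for ITK measured as one member of a broad kinase panel profiling binding across the kinome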
[40] = molecular target: Testis-specific serine/threonine-protein kinase 1 (Homo sapiens, UniProt Q9BXA7)
[41] = molecular target: Mitogen-activated protein kinase 13 (Homo sapiens, UniProt O15264)
[42] = molecular target: cAMP-dependent protein kinase catalytic subunit PRKX (Homo sapiens, UniProt P51817)
[43] = molecular target: Maternal embryonic leucine zipper kinase (Homo sapiens, UniProt Q14680)
[44] = molecular target: Tyrosine-protein kinase Fer (Homo sapiens, UniProt P16591);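 also: FER tested as one member of a kinome panel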
[45] = molecular target: Serine/threonine-protein kinase pim-2 (Homo sapiens, UniProt Q9P1W9);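 also: value comes from a broad kinase panel profiling study in which PIM2 was one of the panel members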
[46] = molecular target: STE20-like serine/threonine-protein kinase (Homo sapiens, UniProt Q9H2G2)
[47] = molecular target: cAMP-dependent protein kinase catalytic subunit alpha (Homo sapiens, UniProt P17612)
[48] = reduction of Shn3 3'UTR-driven luciferase in osteoblasts – cell-based, Clone20 osteoblasts, firefly luciferase, cherry-picked, dose response (AID 624132);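 also: firefly luciferase luminescence from reporter carrying the Shn3 3'UTR in osteoblasts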
[49] = loss of viability in HepG2 cells – cell-based, CellTiter-Glo, cherry-picked, cytotoxicity control for Shn3 inhibitor project, dose response (AID 624134)
[50] = non-specific 3'UTR reporter inhibition in Clone20-Shn3RL – cell-based, Renilla luciferase, cherry-picked, counter-screen for Shn3 inhibitor project, dose response (AID 624133)

Sequence of Focal adhesion kinase 1 (Q05397 whole entry): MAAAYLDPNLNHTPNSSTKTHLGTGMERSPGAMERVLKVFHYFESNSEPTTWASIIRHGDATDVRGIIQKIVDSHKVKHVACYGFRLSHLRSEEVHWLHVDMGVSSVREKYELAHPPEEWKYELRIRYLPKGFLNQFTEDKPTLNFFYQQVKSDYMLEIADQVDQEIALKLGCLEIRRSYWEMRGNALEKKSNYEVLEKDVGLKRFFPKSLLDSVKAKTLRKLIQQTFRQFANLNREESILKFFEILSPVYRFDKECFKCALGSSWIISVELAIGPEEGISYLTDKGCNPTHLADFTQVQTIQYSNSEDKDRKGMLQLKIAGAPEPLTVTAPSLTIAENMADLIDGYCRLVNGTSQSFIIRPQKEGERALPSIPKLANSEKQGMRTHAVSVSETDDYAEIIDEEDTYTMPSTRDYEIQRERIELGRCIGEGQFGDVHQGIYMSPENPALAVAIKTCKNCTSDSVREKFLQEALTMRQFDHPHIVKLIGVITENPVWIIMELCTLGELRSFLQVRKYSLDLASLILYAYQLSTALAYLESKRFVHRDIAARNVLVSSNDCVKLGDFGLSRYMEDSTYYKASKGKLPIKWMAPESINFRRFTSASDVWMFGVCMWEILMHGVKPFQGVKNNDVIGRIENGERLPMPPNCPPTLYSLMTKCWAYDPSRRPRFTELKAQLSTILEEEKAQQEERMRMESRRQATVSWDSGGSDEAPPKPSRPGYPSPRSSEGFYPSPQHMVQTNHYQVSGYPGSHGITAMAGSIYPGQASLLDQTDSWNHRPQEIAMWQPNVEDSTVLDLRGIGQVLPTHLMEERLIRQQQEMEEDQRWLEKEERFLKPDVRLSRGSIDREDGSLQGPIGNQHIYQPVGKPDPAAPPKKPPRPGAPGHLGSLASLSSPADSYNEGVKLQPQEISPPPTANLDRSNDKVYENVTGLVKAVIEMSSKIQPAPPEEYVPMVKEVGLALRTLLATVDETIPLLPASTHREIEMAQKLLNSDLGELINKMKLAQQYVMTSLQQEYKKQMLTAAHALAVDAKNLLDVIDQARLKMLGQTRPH
Sequence of Serine/threonine-protein kinase pim-1 (P11309 whole entry): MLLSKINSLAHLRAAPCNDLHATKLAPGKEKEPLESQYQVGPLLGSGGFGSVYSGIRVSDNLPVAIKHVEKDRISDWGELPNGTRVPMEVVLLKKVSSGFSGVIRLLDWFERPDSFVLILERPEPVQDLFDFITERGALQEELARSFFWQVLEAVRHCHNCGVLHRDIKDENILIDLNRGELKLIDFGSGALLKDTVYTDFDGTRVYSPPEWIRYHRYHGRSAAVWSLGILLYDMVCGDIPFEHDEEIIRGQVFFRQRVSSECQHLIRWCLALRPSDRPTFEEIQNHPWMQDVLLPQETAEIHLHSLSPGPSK
Sequence of Sphingosine 1-phosphate receptor 5 (Q9H228 whole entry): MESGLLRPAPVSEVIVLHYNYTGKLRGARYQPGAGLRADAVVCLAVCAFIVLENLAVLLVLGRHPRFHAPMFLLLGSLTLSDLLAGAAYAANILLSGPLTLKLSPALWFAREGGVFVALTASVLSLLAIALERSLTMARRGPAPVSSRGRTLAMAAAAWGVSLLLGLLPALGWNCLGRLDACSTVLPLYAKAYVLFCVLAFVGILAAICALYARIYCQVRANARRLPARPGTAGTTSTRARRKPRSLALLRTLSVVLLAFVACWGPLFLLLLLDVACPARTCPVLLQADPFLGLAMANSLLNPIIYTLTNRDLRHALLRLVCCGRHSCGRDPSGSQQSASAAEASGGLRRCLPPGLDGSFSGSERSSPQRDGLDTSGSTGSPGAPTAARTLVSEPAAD
Sequence of Aurora kinase A (O14965 whole entry): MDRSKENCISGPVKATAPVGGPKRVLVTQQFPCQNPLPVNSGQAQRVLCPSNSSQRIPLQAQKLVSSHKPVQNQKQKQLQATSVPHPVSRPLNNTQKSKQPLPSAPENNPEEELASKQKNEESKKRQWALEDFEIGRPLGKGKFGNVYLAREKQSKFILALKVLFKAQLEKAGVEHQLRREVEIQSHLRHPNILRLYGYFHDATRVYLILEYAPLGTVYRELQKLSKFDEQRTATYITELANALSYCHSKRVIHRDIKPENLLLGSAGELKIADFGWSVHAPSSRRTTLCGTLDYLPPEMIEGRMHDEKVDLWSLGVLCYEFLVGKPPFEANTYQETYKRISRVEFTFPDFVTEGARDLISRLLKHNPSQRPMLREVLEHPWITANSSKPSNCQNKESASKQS
Sequence of Interleukin-1 receptor-associated kinase 1 (P51617 whole entry): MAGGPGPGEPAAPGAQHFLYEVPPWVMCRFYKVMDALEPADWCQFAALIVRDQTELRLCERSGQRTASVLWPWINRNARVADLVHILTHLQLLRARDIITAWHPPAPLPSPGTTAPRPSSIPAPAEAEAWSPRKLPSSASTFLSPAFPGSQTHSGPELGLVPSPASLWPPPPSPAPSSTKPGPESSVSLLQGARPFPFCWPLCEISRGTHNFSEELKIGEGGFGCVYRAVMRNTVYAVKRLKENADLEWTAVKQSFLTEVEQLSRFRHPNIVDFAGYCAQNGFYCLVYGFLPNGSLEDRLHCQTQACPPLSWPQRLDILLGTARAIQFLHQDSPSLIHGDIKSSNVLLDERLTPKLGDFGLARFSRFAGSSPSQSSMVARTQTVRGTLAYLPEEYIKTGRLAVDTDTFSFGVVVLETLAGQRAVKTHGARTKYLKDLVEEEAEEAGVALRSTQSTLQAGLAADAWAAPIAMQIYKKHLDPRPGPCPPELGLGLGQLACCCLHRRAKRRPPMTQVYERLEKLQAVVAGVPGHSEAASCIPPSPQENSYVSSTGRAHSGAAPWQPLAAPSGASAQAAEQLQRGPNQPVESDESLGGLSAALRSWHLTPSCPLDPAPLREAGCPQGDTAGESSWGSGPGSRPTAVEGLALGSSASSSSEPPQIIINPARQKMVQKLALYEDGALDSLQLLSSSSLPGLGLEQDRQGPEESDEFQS
Sequence of Neuropeptides B/W receptor type 1 (P48145 whole entry): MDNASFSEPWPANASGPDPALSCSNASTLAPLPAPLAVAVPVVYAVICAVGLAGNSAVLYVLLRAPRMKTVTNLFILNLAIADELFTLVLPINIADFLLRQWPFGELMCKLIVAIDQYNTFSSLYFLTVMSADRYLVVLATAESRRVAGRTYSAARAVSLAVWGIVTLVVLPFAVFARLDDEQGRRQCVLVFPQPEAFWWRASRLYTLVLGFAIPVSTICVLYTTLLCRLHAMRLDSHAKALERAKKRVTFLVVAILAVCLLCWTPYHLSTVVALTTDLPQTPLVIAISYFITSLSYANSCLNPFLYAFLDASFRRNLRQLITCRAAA
Sequence of Casein kinase I isoform alpha (P48729 whole entry, canonical isoform): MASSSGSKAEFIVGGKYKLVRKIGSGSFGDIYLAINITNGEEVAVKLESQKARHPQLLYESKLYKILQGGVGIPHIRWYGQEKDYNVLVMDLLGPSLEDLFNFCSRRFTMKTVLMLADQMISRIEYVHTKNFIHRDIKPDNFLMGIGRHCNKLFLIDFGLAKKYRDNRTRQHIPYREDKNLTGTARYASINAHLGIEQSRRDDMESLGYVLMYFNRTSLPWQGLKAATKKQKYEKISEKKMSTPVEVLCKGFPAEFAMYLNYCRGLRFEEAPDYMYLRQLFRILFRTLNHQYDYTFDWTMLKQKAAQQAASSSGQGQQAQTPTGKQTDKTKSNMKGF
Sequence of Aurora kinase B (Q96GD4 whole entry): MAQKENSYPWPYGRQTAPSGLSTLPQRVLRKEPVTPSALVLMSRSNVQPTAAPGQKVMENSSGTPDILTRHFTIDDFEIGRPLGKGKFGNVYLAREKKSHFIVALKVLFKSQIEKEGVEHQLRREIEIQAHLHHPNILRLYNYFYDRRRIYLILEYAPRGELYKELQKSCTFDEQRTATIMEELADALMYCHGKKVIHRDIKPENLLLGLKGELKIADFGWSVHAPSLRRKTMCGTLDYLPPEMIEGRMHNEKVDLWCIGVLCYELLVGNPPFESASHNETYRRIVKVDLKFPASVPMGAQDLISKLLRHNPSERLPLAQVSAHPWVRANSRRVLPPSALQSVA
Sequence of Tyrosine-protein kinase Lck (P06239 whole entry): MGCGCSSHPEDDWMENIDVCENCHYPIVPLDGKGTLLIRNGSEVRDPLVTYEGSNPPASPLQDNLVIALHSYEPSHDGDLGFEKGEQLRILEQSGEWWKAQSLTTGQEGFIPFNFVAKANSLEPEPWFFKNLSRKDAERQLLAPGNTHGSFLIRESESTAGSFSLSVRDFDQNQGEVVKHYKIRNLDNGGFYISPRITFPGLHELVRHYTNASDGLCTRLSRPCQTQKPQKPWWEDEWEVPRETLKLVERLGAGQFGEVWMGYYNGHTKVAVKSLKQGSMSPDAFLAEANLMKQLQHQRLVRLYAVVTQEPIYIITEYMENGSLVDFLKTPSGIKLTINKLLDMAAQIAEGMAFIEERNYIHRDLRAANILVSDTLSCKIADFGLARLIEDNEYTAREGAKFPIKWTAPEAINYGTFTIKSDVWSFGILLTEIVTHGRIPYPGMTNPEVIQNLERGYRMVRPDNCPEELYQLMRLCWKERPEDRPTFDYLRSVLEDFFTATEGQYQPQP
Sequence of Calcium/calmodulin-dependent protein kinase type II subunit delta (Q13557 whole entry): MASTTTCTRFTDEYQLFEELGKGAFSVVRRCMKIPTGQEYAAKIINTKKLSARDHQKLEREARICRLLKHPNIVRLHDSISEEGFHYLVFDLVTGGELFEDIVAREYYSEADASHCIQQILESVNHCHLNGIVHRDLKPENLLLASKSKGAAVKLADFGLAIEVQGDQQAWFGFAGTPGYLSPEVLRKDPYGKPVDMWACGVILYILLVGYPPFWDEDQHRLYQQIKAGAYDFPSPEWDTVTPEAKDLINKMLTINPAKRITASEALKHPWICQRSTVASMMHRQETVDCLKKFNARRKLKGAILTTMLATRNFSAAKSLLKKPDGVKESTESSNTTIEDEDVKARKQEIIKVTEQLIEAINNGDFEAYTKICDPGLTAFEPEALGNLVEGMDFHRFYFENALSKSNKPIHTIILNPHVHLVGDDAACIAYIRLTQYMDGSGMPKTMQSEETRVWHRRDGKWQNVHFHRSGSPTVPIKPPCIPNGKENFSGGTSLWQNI

With `O=C(c1cc(C2CC2)on1)N(C1CCCCC1)C1CCCCC1` the CC50 [1] was > 10 µM (inactive), the EC50 [2] was > 50 µM (inactive) and the EC50 [3] was > 25 µM (inactive). For the same compound, the EC50 [4] was > 50 µM (inactive).
For `CCOC(=O)Cc1nc2c(N)cccc2[nH]1`, the Ki [5] was > 3.98 µM (inactive), the Ki [6] was > 6.31 µM (inactive) and the Ki [7] was > 3.98 µM (inactive). The Ki [8] was > 6.31 µM (inactive), the Ki [9] was > 5.01 µM (inactive) and the Ki (Activin receptor type-1) was > 3.98 µM (inactive). For the same compound, the Ki [10] was > 5.01 µM (inactive), the Ki [11] was > 6.31 µM (inactive) and the Ki [12] was > 6.31 µM (inactive). The Ki [13] was > 5.01 µM (inactive), the Ki [14] was > 3.98 µM (inactive) and the Ki [15] was > 3.98 µM (inactive). For the same compound, the Ki [16] was > 5.01 µM (inactive), the Ki [17] was > 6.31 µM (inactive) and the Ki [18] was > 3.98 µM (inactive). For the same compound, the Ki (Activated CDC42 kinase 1) was > 3.98 µM (inactive), the Ki [19] was 0.398 µM (active) and the Ki [20] was > 3.98 µM (inactive). For the same compound, the Ki (Focal adhesion kinase 1) was > 6.31 µM (inactive), the Ki (Aurora kinase B) was > 3.98 µM (inactive) and the Ki [21] was > 6.31 µM (inactive). The Ki [22] was > 3.98 µM (inactive), the Ki [23] was > 3.98 µM (inactive) and the Ki [24] was > 5.01 µM (inactive). The Ki [25] was > 3.98 µM (inactive) and the Ki [26] was > 3.98 µM (inactive).
In the case of `CCOC(=O)c1cn(-c2ccc(O)cc2C)c2cc(-c3ccccc3)ccc2c1=O`, the Ki [27] is reported as 3.98 µM (active), the Ki [11] is reported as 1.26 µM (active) and the Ki [28] is reported as 5.01 µM (active). The Ki [29] was 3.16 µM (active), the Ki [30] was 5.01 µM (active) and the Ki [31] was 7.94 µM (active).
In the case of `CSc1nnc2n(CCC(C)C)c(=O)c3ccccc3n12`, the IC50 [32] is reported as > 99 µM (inactive) and the IC50 [33] is reported as > 99 µM (inactive).
With `Cn1ccc2ccc(Oc3c(Cl)cnn(Cc4cccc5ccccc45)c3=O)cc21` the IC50 [34] was 3.19 µM (active) and the IC50 [35] was > 20 µM (inactive).
For `Cc1ccc(-c2nn(C(C)(C)C)c3ncnc(N)c23)cc1`, the CC50 [36] was 9.91 µM (active), the Ki [37] was > 1.58 µM (inactive) and the Ki [38] was > 1.58 µM (inactive). For the same compound, the Ki (Aurora kinase A) was > 1.58 µM (inactive), the Ki [16] was > 1.58 µM (inactive) and the Ki [39] was > 1.58 µM (inactive). The Ki [40] was > 1.58 µM (inactive), the Ki [41] was > 7.94 µM (inactive) and the Ki [42] was > 1.58 µM (inactive). The Ki (Focal adhesion kinase 1) was > 1.58 µM (inactive), the Ki [43] was > 1.58 µM (inactive) and the Ki [44] was > 1.58 µM (inactive). The Ki [45] was > 1.58 µM (inactive), the Ki [46] was 1.58 µM (active) and the Ki [47] was 1.58 µM (active). The AC50 [48] was 5.89 µM (active), the AC50 [49] was > 70 µM (inactive) and the AC50 [50] was 1.97 µM (active).
